Source: paper PMC3855971, “Study of Possible Mechanisms Involved in the Inhibitory Effects of Coumarin Derivatives on Neutrophil Activity” (Oxidative Medicine and Cellular Longevity, 2013)

Key:
PKCδ = biological target: T1, PKCδ (Homo sapiens, UniProt Q05655); test: Western blot, phosphorylation of PKCδ (Thr505) in PMA stimulated neutrophils; type: cell-based; settings: 10 and 100 μmol/L, PMA 0.15 μmol/L
T1 construct: endogenous in cells; host or cells: isolated human neutrophils
Experimental: (§1) Phosphorylation of PKC isoenzymes α, βII, and δ, as well as NADPH oxidase subunit p40^phox, was detected using the method described by Jančinová et al..
(§2) The suspension of isolated neutrophils (100 μL) containing 5 × 10^6 cells was preincubated at 37°C for 60 seconds with different concentrations of HHC or HHDC (10, 100 μmol/L) prior to addition of PMA (0.15 μmol/L). Incubation with PMA (5 min) was stopped by using a solubilisation buffer (20 mmol/L Tris-HCl, 5 mmol/L EDTA, 1% Triton, 10% glycerol, 10 mmol/L NaF, 1 mmol/L sodium orthovanadate, 208 μmol/L AEBF, 0.17 μmol/L aprotinin, 8 μmol/L bestatin, 2.8 μmol/L E-64, 4 μmol/L leupeptin, and pH 7.4). The suspension was sonicated at 4°C for […] and centrifuged at 14 000 ×g at 4°C for 5 min to remove unbroken cells. […] From the two strips taken, one was detected for PKCα, βII (area between 60 and 100 kD) and the second for detection of β-actin (30–60 kD), which represented the internal control. […]
(§3) NADPH oxidase subunit p40^phox and PKC isoenzyme δ were detected in the same blots after their washing and incubation with 10x diluted stripping buffer (Reblot Plus Mild Solution, Millipore, Temecula, CA, USA) for 15 min and washed overnight in diluent buffer (1% bovine serum albumin in Tris buffered saline). […] Autoradiogram bands were quantified using the Image J programme. […]

[1] = system: intracellular ROS production in PMA stimulated human neutrophils; test: Intracellular chemiluminescence (luminol with superoxide dismutase and catalase) of PMA stimulated neutrophils; type: cell-based; settings: for Effect on intracellular ROS production: 0.01–100 μmol/L, PMA stimulated; for EC50: Homo sapiens, PMA 0.05 μmol/L, 37°C, luminol-enhanced CL integrated over 1800 s, mean ± SEM, read-out: EC50, intracellular chemiluminescence (50% inhibition of control CL)
Experimental: (§4) The effect of HHC or HHDC (0.01, 0.1, 1, 10, and 100 μmol/L) on extra- and intracellular ROS production was measured in unstimulated and PMA (0.05 μmol/L) stimulated neutrophils (5 × 10^5/sample) by isoluminol-/luminol-enhanced chemiluminescence (CL). Extracellular CL was determined in the system containing isoluminol (5 μmol/L) and HRP (8 U/mL). Intracellular CL was measured with luminol (5 μmol/L) in the presence of the extracellular scavengers superoxide dismutase (100 U/mL) and catalase (2 000 U/mL). […] Data were based on integral values of CL over 1800 s, (RLU × s; RLU: relative light units).

[2] = system: extracellular ROS production in PMA stimulated human neutrophils; test: Extracellular chemiluminescence (isoluminol/HRP) of PMA stimulated neutrophils; type: cell-based; settings: for Effect on extracellular ROS production: 0.01–100 μmol/L, PMA stimulated; for EC50: Homo sapiens, PMA 0.05 μmol/L, 37°C, isoluminol-enhanced CL integrated over 1800 s, mean ± SEM, read-out: EC50, extracellular chemiluminescence (50% inhibition of control CL); for EC50 / IC50: Neutrophil; for IC50: PMA stimulated human neutrophils, read-out: IC50 of control extracellular chemiluminescence
Experimental: as §4

human neutrophils = test: Cytotoxicity by ATP liberation (luciferin-luciferase chemiluminescence); type: cell-based; settings: 1, 10, and 100 μmol/L
Experimental: The cytotoxic effect of HHC and HHDC was evaluated by means of ATP liberation by the luciferin-luciferase chemiluminescence. The neutrophil suspension (30 μL; 30 000 cells/sample) and 20 μL of Tyrode's solution were incubated with 50 μL of HHC or HHDC (1–100 μmol/L) for 15 min at 37°C. Ten microliters of a mixture of luciferin (1.6 μg/sample) and luciferase (45 000 U/sample) was added, and the chemiluminescence was recorded for 60 s. In each experiment, the chemiluminescence of ATP standards (1–500 nmol/L) was measured and the concentrations of ATP in samples were calculated from the calibration curve. The total ATP content was assessed immediately after sonication of neutrophils for 10 s.

PKC = PKC activity assay (ELISA kit) in cytosol of PMA stimulated neutrophils; type: cell-based, human; settings: for PKC activity (percentage of stimulated PMA control): 30 min incubation, PMA 0.15 μmol/L 3 min, mean ± SEM, n = 8
Experimental: PKC activity in the cytosol was detected by the modified method of Varga et al.. Isolated human neutrophils (5 × 10^5/mL) were incubated 30 min with HHC (1, 10, and 100 μmol/L) or HHDC (1, 10, and 100 μmol/L) at 37°C. Neutrophils were then stimulated with PMA (0.15 μmol/L, final concentration) at 37°C for 3 min. The reaction was stopped by addition of 10 vol of ice-cold PBS. After centrifugation (500 ×g, 4°C, 10 min) the cells were resuspended in sample buffer (20 mmol/L TRIS-HCl, 5 mmol/L EDTA, 1% Triton, 10% glycerol, and protease inhibitor cocktail), sonicated on ice, and centrifuged (14 000 ×g, 5 min, 4°C). The cytosolic fractions were transferred to a prechilled 1.5 mL microcentrifuge tube and stored at –70°C. Protein content of cytosol fraction was measured using Bradford Dye Reagent Detection Kit (Bio-Rad, USA). PKC activity was measured with a Nonradioactive Protein Kinase Assay kit (Assay Designs, Ann Arbor, MI, USA), which is based on a solid-phase enzyme-linked immunoabsorbent assay (ELISA), utilising a specific synthetic peptide as substrate for PKC and a polyclonal antibody recognizing the phosphorylated form of the substrate. The assay is developed with tetramethylbenzidine substrate and a colour develops in proportion to PKC phosphotransferase activity. The colour development was stopped with acid stop solution and the intensity of the colour was measured in a microplate reader at 450 nm. The data were expressed as relative kinase activity per 1 mg of protein.

[3] = Chemiluminescence assay in cell-free system; type: biochemical; settings: luminol, hydrogen peroxide; for EC50: HRP, 37°C, CL over 10 minutes, mean ± SEM, read-out: EC50, cell free chemiluminescence (50% inhibition of control CL)
Experimental: In the cell-free system, luminol, horseradish peroxidase, and hydrogen peroxide were used for chemiluminescence generation. The 200 μL samples consisted of 50 μL aliquots: HRP (2 U/mL), luminol (10 μmol/L), HHC, or HHDC solutions in the concentrations of 1, 10, or 100 μmnol/L. The reaction was initiated by adding hydrogen peroxide at the final concentration of 100 μmol/L. The chemiluminescence responses were measured for 10 minutes at 37°C in a microplate luminometer Immunotech LM-01T (Czech Republic).

[4] = system: NADPH oxidase subunit p40^phox; test: Western blot, phosphorylation of NADPH oxidase subunit p40phox (T154) in PMA stimulated neutrophils; type: cell-based, human; settings: 10 and 100 μmol/L, PMA 0.15 μmol/L
Experimental: as §1, §2, §3

[5] = design: method as in PMID 21187835; settings: cited from earlier work

T1 sequence (Q05655 whole entry): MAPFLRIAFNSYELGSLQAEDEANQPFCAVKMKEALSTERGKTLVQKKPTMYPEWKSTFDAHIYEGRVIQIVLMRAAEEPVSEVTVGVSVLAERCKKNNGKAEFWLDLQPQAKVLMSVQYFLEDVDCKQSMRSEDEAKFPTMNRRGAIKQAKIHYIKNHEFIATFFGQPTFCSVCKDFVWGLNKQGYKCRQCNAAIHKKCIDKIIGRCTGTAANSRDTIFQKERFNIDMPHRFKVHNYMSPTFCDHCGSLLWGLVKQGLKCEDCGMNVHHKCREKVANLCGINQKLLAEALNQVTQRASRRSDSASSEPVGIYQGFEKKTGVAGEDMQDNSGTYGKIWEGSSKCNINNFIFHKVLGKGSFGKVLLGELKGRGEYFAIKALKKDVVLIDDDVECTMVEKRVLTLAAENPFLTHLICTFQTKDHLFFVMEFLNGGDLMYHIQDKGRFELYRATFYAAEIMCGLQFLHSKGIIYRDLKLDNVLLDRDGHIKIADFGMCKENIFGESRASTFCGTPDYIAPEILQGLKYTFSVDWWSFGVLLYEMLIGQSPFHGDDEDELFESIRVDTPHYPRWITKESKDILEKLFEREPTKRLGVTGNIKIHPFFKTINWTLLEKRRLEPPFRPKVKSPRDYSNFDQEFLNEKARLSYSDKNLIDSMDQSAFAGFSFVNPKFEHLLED

Row | Compound | Effect on phosphorylation of PKCδ (PKCδ) | Effect on intracellular ROS production [1] | EC50 ([1]; Neutrophil) [µM] | IC50 ([1]; Neutrophil, PMA stimulated human neutrophils) [µM] | Effect on extracellular ROS production [2] | EC50 [2] [nM] | IC50 [2] [nM] | Effect on spontaneous ATP liberation (cytotoxicity) (human neutrophils) | PKC activity (percentage of stimulated PMA control) (PKC; 1 μmol/L) [%] | PKC activity (percentage of stimulated PMA control) (PKC; 10 μmol/L) [%] | PKC activity (percentage of stimulated PMA control) (PKC; 100 μmol/L) [%] | EC50 [3] [nM] | Effect on phosphorylation of p40phox subunit [4] | Effect on PKC activity (PKC; 1, 10, and 100 μmol/L, PMA stimulated) | Partition coefficient, compared to that of HHC [5] | IC50 ([3]; horseradish peroxidase, unit inferred, read-out: IC50, chemiluminescence generated by cell-free system) [nM]
1 | O=c1oc2cc(O)ccc2cc1-c1ccc(O)cc1 [HHC, 7-Hydroxy-3-(4′-hydroxyphenyl) coumarin] | did not affect phosphorylation of PKCδ | decreased significantly intracellular ROS production | 5.24 ± 0.57 | 5.24 ± 0.57 | decreased significantly extracellular ROS production | 1040 ± 200 | 1040 ± 200 | did not increase spontaneous ATP liberation | 87.7 ± 4.2 | 74.8 ± 6.3 | 46.3 ± 1.8 | 590 ± 10 | failed to influence it | – | – | –
2 | O=C1Oc2cc(O)ccc2CC1c1ccc(O)cc1 (stereo not shown) [HHDC, 7-Hydroxy-3-(4′-hydroxyphenyl)-3,4-dihydrocoumarin] | did not affect phosphorylation of PKCδ | slightly effective only in the highest concentration tested | > 100 | – | decreased significantly extracellular ROS production | 1010 ± 130 | 1010 ± 130 | did not increase spontaneous ATP liberation | – | – | – | 2470 ± 40 | failed to influence it | did not significantly influence PKC activity | lower values of the partition coefficient | 2470 ± 40
